pEC50, pIC50: −log10 of the molar value.

Data set [1] concerns the target recombinant 17bHSD13 (N2-K300) (Homo sapiens (Human), UniProt Q7Z5P4). In words: In Vitro 17bHSD13 Enzyme Assay. It is filed as biochemical. The conditions noted are these: 80 nM 17bHSD13, 0.5 mM NAD, 20 μM Estradiol, 2.5 h; estradiol to estrone by LC-MS/MS. An outline of the steps: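 Human 17bHSD13 (N2-K300, 80 nM) with 0.5 mM NAD, 20 μM estradiol and varied compound in 50 mM Tris-Cl pH 7.4, 5 mM EDTA, 0.01% DDM. Estrone/(estrone+estradiol) ratio read by LC-MS/MS (APCI, positive MRM). Inhibition normalised to DMSO and a known-inhibitor control; IC50 from curve fit.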

Data set [2] deals with recombinant 17bHSD4 (M1-N311) (Homo sapiens (Human), UniProt P51659). In words: In Vitro 17bHSD4 Enzyme Assay. It is filed as biochemical. The conditions noted are these: 40 nM 17bHSD4, 0.125 mM NAD, 15 μM Estradiol, 1.5 h; NADH fluorescence; read-out: 17HSD17b4 Enzyme assay IC50.
Data set [3] addresses human CB1 receptor expressed in transfected CHO cells (Homo sapiens (Human), UniProt P21554). In words: Assay C: CB1 Agonism Assay. It is filed as cell-based. The conditions noted are these: agonist activity, cAMP HTRF, read-out: Assay C: CB1 Hu CHO cAMP TRF Ag CR GMean EC50. As for the experimental part: Assay C: CB1 Agonism Assay
Evaluation of the agonist activity of compounds at the human CB1 receptor expressed in transfected CHO cells, determined by measuring their effects on cAMP modulation using the HTRF detection method.
Thereafter, the adenylyl cyclase activator NKH 477 is added at a final concentration of 3 μM. Following 20 min incubation at 37° C., the cells are lysed and the fluorescence acceptor (D2-labeled cAMP) and fluorescence donor (anti-cAMP antibody labeled with europium cryptate) are added. After 60 min at room temperature, the fluorescence transfer is measured at gex=337 nm and gem=620 and 665 nm using a microplate reader (RUBYSTAR, BMG). The cAMP concentration is determined by dividing the signal measured at 665 nm by that measured at 620 nm (ratio). The results are expressed as a percent of the control response to 30 nM CP 55940. The standard reference agonist is CP 55940, which is tested in each experiment at several concentrations to generate a concentration-response curve from which its EC50 value is calculated.
Bibliographic reference Felder, C. C. et al., (1995), Comparison of the pharmacology and signal transduction of the human cannabinoid CB1 and CB2 receptors, Mol. Pharmacol., 48: 443, which is incorporated herein by reference.
In general terms: Time-resolved FRET reads energy transfer from a long-lived donor to a nearby acceptor.

Data set [4] can be described thus: Metabolism Study: in vitro study to identify metabolites. It is filed as in vitro ADME. From the text:
Metabolites 1 and 2 were subsequently synthesised and characterised.

Chain of recombinant 17bHSD4 (M1-N311) (P51659 1-311): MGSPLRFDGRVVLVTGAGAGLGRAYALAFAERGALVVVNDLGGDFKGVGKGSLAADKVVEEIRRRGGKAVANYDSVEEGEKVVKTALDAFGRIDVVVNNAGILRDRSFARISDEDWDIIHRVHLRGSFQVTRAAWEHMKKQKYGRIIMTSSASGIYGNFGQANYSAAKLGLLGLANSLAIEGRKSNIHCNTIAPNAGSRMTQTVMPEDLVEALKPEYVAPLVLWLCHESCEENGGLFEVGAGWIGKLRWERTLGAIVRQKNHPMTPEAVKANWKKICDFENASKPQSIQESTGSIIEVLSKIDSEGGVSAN
Chain of human CB1 receptor expressed in transfected CHO cells (P21554 whole entry): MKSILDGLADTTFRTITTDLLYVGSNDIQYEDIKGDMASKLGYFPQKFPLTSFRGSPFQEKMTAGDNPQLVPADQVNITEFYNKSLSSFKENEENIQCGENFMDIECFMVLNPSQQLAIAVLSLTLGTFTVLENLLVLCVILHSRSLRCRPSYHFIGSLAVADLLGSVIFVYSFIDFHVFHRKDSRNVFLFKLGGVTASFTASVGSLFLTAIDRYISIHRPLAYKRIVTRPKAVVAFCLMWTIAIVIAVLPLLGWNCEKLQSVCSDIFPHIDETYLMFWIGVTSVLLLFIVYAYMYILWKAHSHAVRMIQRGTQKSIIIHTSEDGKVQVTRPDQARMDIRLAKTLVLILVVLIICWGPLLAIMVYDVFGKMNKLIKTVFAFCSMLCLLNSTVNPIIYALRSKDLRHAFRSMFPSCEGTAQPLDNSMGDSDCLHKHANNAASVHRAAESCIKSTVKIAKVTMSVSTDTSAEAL
Chain of recombinant 17bHSD13 (N2-K300) (Q7Z5P4 2-300): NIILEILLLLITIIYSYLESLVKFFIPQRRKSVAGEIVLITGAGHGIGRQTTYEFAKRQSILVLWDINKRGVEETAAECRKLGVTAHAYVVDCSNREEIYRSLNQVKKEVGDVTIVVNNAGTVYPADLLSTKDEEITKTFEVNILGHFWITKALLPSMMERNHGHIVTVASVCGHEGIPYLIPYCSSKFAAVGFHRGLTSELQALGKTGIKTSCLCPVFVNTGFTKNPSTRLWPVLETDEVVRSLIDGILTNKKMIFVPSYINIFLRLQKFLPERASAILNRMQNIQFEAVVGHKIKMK

Turning to `C[C@@H]1C[C@H](C)CN(C(=O)c2nc(-c3cc(F)c(F)c(O)c3F)no2)C1` [Example 111, ((3R,5S)-3,5-Dimethylpiperidin-1-yl)(3-(2,4,5-trifluoro-3-hydroxyphenyl)-1,2,4-oxadiazol-5-yl)methanone], the pIC50 (in general, −log10 of the IC50, conventionally taken in molar units) in data set [1] was 7.03; in data set [2], under 4.30. Also, in data set [3], the pEC50 – broadly, the EC50 on a negative log10 scale, so that one unit is a factor of ten – is 5.47.
As to `C[C@@H]1CN(C(=O)c2noc(-c3cc(F)c(F)c(O)c3F)n2)C[C@H](C)O1` [Example 87, ((2R,6S)-2,6-Dimethylmorpholino)(5-(2,4,5-trifluoro-3-hydroxyphenyl)-1,2,4-oxadiazol-3-yl)methanone], the pIC50 in data set [1] was 6.55; in data set [2] it was under 3.70. The negative-log EC50 (pEC50) in data set [3] was 4.34. In data set [4], the metabolites identified entry was “yielded Metabolite 1 and Metabolite 2”.
For `COc1ccccc1C1CCN(C(=O)c2noc(-c3cc(F)c(F)c(O)c3F)n2)C1` (stereo not drawn) [Example 4, (3-(2-Methoxyphenyl)pyrrolidin-1-yl)(5-(2,4,5-trifluoro-3-hydroxyphenyl)-1,2,4-oxadiazol-3-yl)methanone], the pIC50 is 7.44 in data set [1] and 5.21 in data set [2]. Also, the pEC50 in data set [3] was 5.72.
Consider `N#Cc1ccc2c(c1)CN(C(=O)c1noc(-c3cc(F)c(F)c(O)c3F)n1)CC2` [Example 86, 2-(5-(2,4,5-Trifluoro-3-hydroxyphenyl)-1,2,4-oxadiazole-3-carbonyl)-1,2,3,4-tetrahydroisoquinoline-7-carbonitrile], for which the pIC50 in data set [1] was 6.99; in data set [2], 5.07. In addition, the negative-log EC50 (pEC50) in data set [3] is 5.24.
For `O=C(c1noc(-c2ccc(F)c(O)c2)n1)N1CC[C@H](c2ccccc2)C1` [Example 11, (R)-(5-(4-Fluoro-3-hydroxyphenyl)-1,2,4-oxadiazol-3-yl)(3-phenylpyrrolidin-1-yl)methanone], the negative-log IC50 (pIC50) in data set [1] is 7.16; in data set [2] it was under 4.30. Further, in data set [3], the negative logarithm of the EC50 (pEC50) was 5.51.
In the case of `O=C(c1noc(-c2cc(F)c(F)c(O)c2F)n1)N1CCO[C@@H]2CCC[C@@H]21` [Example 113, ((4aS,7aR)-Hexahydrocyclopenta[b][1,4]oxazin-4(4aH)-yl)(5-(2,4,5-trifluoro-3-hydroxyphenyl)-1,2,4-oxadiazol-3-yl)methanone], the negative-log IC50 (pIC50) was 6.68 in data set [1] and 4.34 in data set [2]. The pEC50 in data set [3] is 6.40.
Regarding `C[C@@H]1CN(C(=O)c2cc(-c3cc(F)c(F)c(O)c3F)on2)C[C@H](C)O1` [Example 89, ((2R,6S)-2,6-Dimethylmorpholino)(5-(2,4,5-trifluoro-3-hydroxyphenyl)isoxazol-3-yl)methanone], the negative-log IC50 (pIC50) in data set [1] was 6.77; in data set [2] it was under 4.30. Further, the negative-log EC50 (pEC50) in data set [3] was 4.11.
Taken in the same sequence, the figures for `C[C@@H]1CN(C(=O)c2ccc(-c3cc(F)c(F)c(O)c3F)s2)C[C@H](C)O1` [Example 3, ((2R,6S)-2,6-Dimethylmorpholino)(5-(2,4,5-trifluoro-3-hydroxyphenyl)thiophen-2-yl)methanone] were 7.44, 4.50 and under 4.00.
As for `O=C(c1noc(-c2cc(F)c(F)c(O)c2F)n1)N1CCO[C@@H]2CCC[C@H]21` [Example 114, ((4aR,7aR)-Hexahydrocyclopenta[b][1,4]oxazin-4(4aH)-yl)(5-(2,4,5-trifluoro-3-hydroxyphenyl)-1,2,4-oxadiazol-3-yl)methanone], the values for the negative-log IC50 (pIC50) in data set [1] and in data set [2] were 7.34 and under 4.30, respectively. The pEC50 in data set [3] is 4.22.
For `CC(C)[C@H]1CN(C(=O)c2noc(-c3cc(F)c(F)c(O)c3F)n2)C[C@@H](C)O1` (racemic) [Example 122, rac-((2R,6S)-2-isopropyl-6-methylmorpholino)(5-(2,4,5-trifluoro-3-hydroxyphenyl)-1,2,4-oxadiazol-3-yl)methanone], the negative-log IC50 (pIC50) is 7.07 in data set [1] and under 4.30 in data set [2]. Besides, the negative-log EC50 (pEC50) in data set [3] is 4.65.
As to `CC[C@H]1CN(C(=O)c2noc(-c3cc(F)c(F)c(O)c3F)n2)C[C@@H](C)O1` (racemic) [Example 121, rac-((2R,6S)-2-Ethyl-6-methylmorpholino)(5-(2,4,5-trifluoro-3-hydroxyphenyl)-1,2,4-oxadiazol-3-yl)methanone], the figures for the negative-log IC50 (pIC50) in data set [1] and in data set [2] were 6.89 and under 4.30, respectively. Further, the negative-log EC50 (pEC50) in data set [3] is under 5.00.
Turning to `C[C@@H]1CC[C@H](C)N1C(=O)c1noc(-c2cc(F)c(F)c(O)c2F)n1` [Example 38, ((2R,5S)-2,5-Dimethylpyrrolidin-1-yl)(5-(2,4,5-trifluoro-3-hydroxyphenyl)-1,2,4-oxadiazol-3-yl)methanone], the pIC50 in data set [1] is 6.68; in data set [2], 4.62.
Regarding `CC1CN(C(=O)c2noc(-c3cc(F)c(F)c(O)c3F)n2)CC(C)(C)O1` (stereo not drawn) [Example 117, (5-(2,4,5-Trifluoro-3-hydroxyphenyl)-1,2,4-oxadiazol-3-yl)(2,2,6-trimethylmorpholino)methanone], the pIC50 in data set [1] was 6.63; in data set [2] it was 4.40. For the same compound, the pEC50 in data set [3] was 6.30.
Turning to `C[C@@H]1CN(C(=O)c2cnc(-c3cc(F)c(F)c(O)c3F)s2)C[C@H](C)O1` [Example 120, ((2R,6S)-2,6-Dimethylmorpholino)(2-(2,4,5-trifluoro-3-hydroxyphenyl)thiazol-5-yl)methanone], the negative logarithm of the IC50 (pIC50) in data set [1] is 7.36; in data set [2], under 4.30. Moreover, in data set [3], the negative logarithm of the EC50 (pEC50) was 5.07.
Taken in the same sequence, the figures for `CC1CN(C(=O)c2noc(-c3cc(F)c(F)c(O)c3F)n2)CC2(CCC2)O1` (racemic) [Example 123, (6-Methyl-5-oxa-8-azaspiro[3.5]nonan-8-yl)(5-(2,4,5-trifluoro-3-hydroxyphenyl)-1,2,4-oxadiazol-3-yl)methanone] were 7.11, 4.49 and under 5.52.
Regarding `CC(C)CC1CN(C(=O)c2noc(-c3cc(F)c(F)c(O)c3F)n2)CCO1` (stereo not drawn) [Example 47, (2-Isobutylmorpholino)(5-(2,4,5-trifluoro-3-hydroxyphenyl)-1,2,4-oxadiazol-3-yl)methanone], the negative-log IC50 (pIC50) was 6.74 in data set [1] and 4.32 in data set [2].
`Cn1nnc(-c2cnc(N3CCN(C(=O)c4noc(-c5cc(F)c(F)c(O)c5F)n4)CC3)c(Cl)c2)n1` [Example 67, (4-(3-Chloro-5-(2-methyl-2H-tetrazol-5-yl)pyridin-2-yl)piperazin-1-yl)(5-(2,4,5-trifluoro-3-hydroxyphenyl)-1,2,4-oxadiazol-3-yl)methanone]: the negative-log IC50 (pIC50) was 7.10 in data set [1] and 5.40 in data set [2].
Turning to `O=C(c1noc(-c2cc(F)c(F)c(O)c2F)n1)N1CCO[C@H]2CCC[C@@H]21` [Example 115, ((4aS,7aS)-Hexahydrocyclopenta[b][1,4]oxazin-4(4aH)-yl)(5-(2,4,5-trifluoro-3-hydroxyphenyl)-1,2,4-oxadiazol-3-yl)methanone], the negative logarithm of the IC50 (pIC50) in data set [1] is 6.81; in data set [2], under 4.30. Further, in data set [3], the negative-log EC50 (pEC50) is under 4.00.
In the same order, the values of `N#Cc1cccc2c1CCN(C(=O)c1noc(-c3cc(F)c(F)c(O)c3F)n1)C2` [Example 66, 2-(5-(2,4,5-Trifluoro-3-hydroxyphenyl)-1,2,4-oxadiazole-3-carbonyl)-1,2,3,4-tetrahydroisoquinoline-5-carbonitrile] are 6.73, 4.71 and 5.49.
Take `N#Cc1c(C(=O)N2CCN(CCCOc3ccc(F)cc3)CC2)noc1-c1cc(F)c(F)c(O)c1F` [Example 14, 3-(4-(3-(4-Fluorophenoxy)propyl)piperazine-1-carbonyl)-5-(2,4,5-trifluoro-3-hydroxyphenyl)isoxazole-4-carbonitrile]: the negative-log IC50 (pIC50) is 6.90 in data set [1] and 4.38 in data set [2].
For the compound `C[C@@H]1C[C@H](C)CN(C(=O)c2noc(-c3cc(F)c(F)c(O)c3F)n2)C1` [Example 37, ((3R,5S)-3,5-Dimethylpiperidin-1-yl)(5-(2,4,5-trifluoro-3-hydroxyphenyl)-1,2,4-oxadiazol-3-yl)methanone], the negative logarithm of the IC50 (pIC50) in data set [1] is 7.24; in data set [2] it was 4.52. Besides, the negative logarithm of the EC50 (pEC50) in data set [3] is 5.60.

Values taken from patent publication US20250011311A1, “AMIDO HETEROAROMATIC COMPOUNDS” (AstraZeneca AB, priority 2022, published 2025).
